Values of other authors in US9625464B2, “Fluorescent probe for plasma cell identification and isolation, and plasma cell identification or isolation method using the probe” (NATIONAL UNIVERSITY CORPORATION UNIVERSITY OF TOYAMA, priority 2010, dated 2017).

Biological target: ATP-sensitive K+ channel
Details: read-out: dissociation constant to ATP-sensitive K+ channel

Kd: 0.1 to 3.6 nM
Structure (SMILES): COc1ccc(Cl)cc1C(=O)NCCc1ccc(S(=O)(=O)NC(=O)NC2CCCCC2)cc1 [glibenclamide]
